In ChEMBL document CHEMBL5728826, “Benzimidazole compounds and derivatives as EGFR inhibitors” (2021):
pIC50: −log10 of the molar value.

Biological target: Epidermal growth factor receptor (Homo sapiens, UniProt P00533)
Assay: Biochemical EGFR Inhibition Assays ([…]): 5 μL of EGFR enzyme form in assay buffer (50 mM HEPES pH 7.3, 10 mM MgCl2, 1 mM EGTA, 0.01% Tween 20, 2 mM DTT) are dispensed into columns 1-23, than 5 μL of ATP and ULight-poly-GT substrate (PerkinElmer; TRF0100-M) mix in assay buffer is added to all wells (final assay concentration of the ULight-poly-GT substrate 200 nM). Each of the different …

Sequence of Epidermal growth factor receptor (P00533 whole entry): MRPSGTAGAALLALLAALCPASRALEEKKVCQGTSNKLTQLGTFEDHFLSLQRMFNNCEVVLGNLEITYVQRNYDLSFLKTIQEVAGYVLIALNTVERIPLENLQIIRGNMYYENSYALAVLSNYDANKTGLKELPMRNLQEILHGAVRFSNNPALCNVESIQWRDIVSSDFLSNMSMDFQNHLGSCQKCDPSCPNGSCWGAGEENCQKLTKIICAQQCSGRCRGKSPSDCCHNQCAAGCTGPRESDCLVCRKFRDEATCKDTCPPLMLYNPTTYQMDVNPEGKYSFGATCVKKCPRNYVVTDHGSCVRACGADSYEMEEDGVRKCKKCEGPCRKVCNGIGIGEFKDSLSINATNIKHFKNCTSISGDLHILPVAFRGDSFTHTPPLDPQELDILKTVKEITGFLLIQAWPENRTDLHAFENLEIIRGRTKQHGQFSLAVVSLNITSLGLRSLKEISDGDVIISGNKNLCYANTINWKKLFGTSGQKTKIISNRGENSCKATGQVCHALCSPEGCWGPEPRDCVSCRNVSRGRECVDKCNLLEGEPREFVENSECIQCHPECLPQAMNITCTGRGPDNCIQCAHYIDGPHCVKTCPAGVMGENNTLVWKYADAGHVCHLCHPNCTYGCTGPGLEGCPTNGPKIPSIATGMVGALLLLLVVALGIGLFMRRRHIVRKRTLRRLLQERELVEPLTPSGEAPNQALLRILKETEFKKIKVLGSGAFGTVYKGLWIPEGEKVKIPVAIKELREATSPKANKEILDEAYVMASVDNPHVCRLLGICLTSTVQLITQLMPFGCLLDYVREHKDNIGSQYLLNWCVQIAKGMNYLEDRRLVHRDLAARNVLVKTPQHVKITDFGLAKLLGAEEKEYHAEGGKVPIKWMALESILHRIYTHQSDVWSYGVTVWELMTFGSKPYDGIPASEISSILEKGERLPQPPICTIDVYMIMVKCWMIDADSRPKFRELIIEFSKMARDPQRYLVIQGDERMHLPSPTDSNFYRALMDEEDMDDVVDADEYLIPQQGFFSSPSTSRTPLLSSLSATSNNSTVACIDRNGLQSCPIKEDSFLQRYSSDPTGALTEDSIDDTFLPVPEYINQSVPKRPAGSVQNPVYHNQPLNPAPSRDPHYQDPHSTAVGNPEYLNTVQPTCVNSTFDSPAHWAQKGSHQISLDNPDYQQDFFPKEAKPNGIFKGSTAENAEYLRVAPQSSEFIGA

Row | pIC50 | SMILES
1 | 6.66 | COc1ccncc1-c1cc(C(=O)/N=c2\[nH]c3cc(C4CCN(C(C)=O)CC4)ccc3n2CC(C)(C)O)ccn1
2 | < 4.00 | Cn1cc(-c2cc(C(=O)/N=c3\[nH]c4ccccc4n3CC(C)(C)O)ccn2)cn1
